Experimental data from article PMC3692398 (Biochemical pharmacology, 2013).

How the values were obtained:
[1] = molecular target: T1, hNET (Homo sapiens, UniProt P23975); experiment: cell-based; assay type: cell-based
[2] = molecular target: T1, hNET; experiment: Superfusion release of preloaded [3H]NE from HEK-hNET cells; assay type: cell-based
[3] = molecular target: T2, h5-HT1A receptor (Homo sapiens, UniProt P08908); experiment: Stimulation of [35S]GTPγS binding, HEK-h5-HT1A membranes; assay type: biochemical
T2 sequence (P08908 1-422): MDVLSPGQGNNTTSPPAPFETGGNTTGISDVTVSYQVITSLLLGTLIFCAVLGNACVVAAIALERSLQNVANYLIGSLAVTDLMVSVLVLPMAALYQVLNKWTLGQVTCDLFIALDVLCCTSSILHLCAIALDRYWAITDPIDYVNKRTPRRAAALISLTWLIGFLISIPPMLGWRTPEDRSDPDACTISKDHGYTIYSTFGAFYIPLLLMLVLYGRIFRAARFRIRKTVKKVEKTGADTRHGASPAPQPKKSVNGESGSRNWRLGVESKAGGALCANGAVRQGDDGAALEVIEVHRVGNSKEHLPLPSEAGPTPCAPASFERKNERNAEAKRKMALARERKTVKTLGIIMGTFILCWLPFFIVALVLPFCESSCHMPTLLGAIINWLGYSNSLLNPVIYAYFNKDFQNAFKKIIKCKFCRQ

[4] = molecular target: T3, hDAT (Homo sapiens, UniProt Q01959); experiment: Inhibition of [125I]RTI-55 binding, HEK-hDAT membranes; conditions: read-out: Inhibition of [125I]RTI-55 binding Ki ± sem, hDAT; HEK-hDAT membranes
[5] = molecular target: T4, h5-HT2C receptor (Homo sapiens, UniProt P28335); experiment: Inhibition of 5-HT-stimulated IP-1 formation; assay type: cell-based; conditions: 100 nM 5-HT; normalized to maximal inhibition by SB242084 (1 µM)
T4 sequence (P28335 33-458): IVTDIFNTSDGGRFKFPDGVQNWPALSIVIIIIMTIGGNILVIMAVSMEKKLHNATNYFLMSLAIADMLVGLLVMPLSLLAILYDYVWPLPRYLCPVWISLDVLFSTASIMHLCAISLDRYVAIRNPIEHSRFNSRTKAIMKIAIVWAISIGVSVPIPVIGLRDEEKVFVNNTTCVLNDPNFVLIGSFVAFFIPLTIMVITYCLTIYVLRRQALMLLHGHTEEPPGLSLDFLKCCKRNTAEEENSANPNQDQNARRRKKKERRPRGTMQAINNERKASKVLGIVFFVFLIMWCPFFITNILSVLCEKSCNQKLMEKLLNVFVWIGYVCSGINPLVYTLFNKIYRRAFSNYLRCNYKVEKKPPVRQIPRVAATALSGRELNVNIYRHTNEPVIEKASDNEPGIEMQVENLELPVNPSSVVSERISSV

[6] = molecular target: T4, h5-HT2C receptor; experiment: biochemical; assay type: binding; conditions: read-out: Inhibition of radioligand binding Ki ± sem, h5-HT2C [125I]DOI
[7] = overdose with a bath salt product containing 4-FMC and MDPV; ref [44]; cited from earlier work
[8] = molecular target: T5, h5-HT2A receptor (Homo sapiens, UniProt P28223); experiment: Inhibition of 5-HT-stimulated IP-1 formation; assay type: cell-based; conditions: 100 nM 5-HT
[9] = molecular target: T5, h5-HT2A receptor; experiment: [125I]DOI binding, HEK-h5-HT2A; conditions: read-out: Inhibition of radioligand binding Ki ± sem, h5-HT2A [125I]DOI
[10] = molecular target: T2, h5-HT1A receptor; experiment: [3H]8-OH-DPAT binding, HEK-h5-HT1A; conditions: read-out: Inhibition of radioligand binding Ki ± sem, h5-HT1A [3H]8OH-DPAT
[11] = molecular target: T6, hVMAT2 (Homo sapiens, UniProt Q05940); experiment: Superfusion release of preloaded [3H]NE from HEK-hVMAT2 cells; assay type: cell-based; conditions: read-out: Drug-induced release of [3H]NE EC50 ± sem, hVMAT2; superfusion
[12] = molecular target: T1, hNET; experiment: biochemical; assay type: binding; conditions: read-out: Inhibition of [125I]RTI-55 binding Ki ± sem, hNET; HEK-hNET membranes
[13] = molecular target: hSigma1 receptor (Homo sapiens, UniProt Q99720); experiment: [3H]; assay type: binding; conditions: read-out: Inhibition of [3H]pentazocine binding Ki ± sem, hSigma1
[14] = molecular target: T6, hVMAT2; experiment: Inhibition of [3H]5-HT uptake, HEK-hVMAT2 membrane preparation; assay type: biochemical; conditions: read-out: Inhibition of [3H]5-HT uptake IC50 ± sem, hVMAT2; 40 nM [3H]5-HT, 2 mM MgATP
[15] = molecular target: T3, hDAT; experiment: Superfusion release of preloaded [3H]DA from HEK-hDAT cells; assay type: cell-based
[16] = molecular target: T3, hDAT; experiment: Inhibition of [3H]DA uptake, intact HEK-hDAT cells; assay type: cell-based
[17] = molecular target: T7, hSERT (Homo sapiens, UniProt P31645); experiment: Inhibition of [3H]5-HT uptake, intact HEK-hSERT cells; assay type: cell-based; conditions: read-out: Inhibition of [3H]neurotransmitter uptake IC50 ± sem, hSERT [3H]5-HT; 20 nM [3H]5-HT, intact cells
[18] = molecular target: T7, hSERT; experiment: Superfusion release of preloaded [3H]5-HT from HEK-hSERT cells; assay type: cell-based

T1 sequence (P23975 whole entry, the tested form may be a part): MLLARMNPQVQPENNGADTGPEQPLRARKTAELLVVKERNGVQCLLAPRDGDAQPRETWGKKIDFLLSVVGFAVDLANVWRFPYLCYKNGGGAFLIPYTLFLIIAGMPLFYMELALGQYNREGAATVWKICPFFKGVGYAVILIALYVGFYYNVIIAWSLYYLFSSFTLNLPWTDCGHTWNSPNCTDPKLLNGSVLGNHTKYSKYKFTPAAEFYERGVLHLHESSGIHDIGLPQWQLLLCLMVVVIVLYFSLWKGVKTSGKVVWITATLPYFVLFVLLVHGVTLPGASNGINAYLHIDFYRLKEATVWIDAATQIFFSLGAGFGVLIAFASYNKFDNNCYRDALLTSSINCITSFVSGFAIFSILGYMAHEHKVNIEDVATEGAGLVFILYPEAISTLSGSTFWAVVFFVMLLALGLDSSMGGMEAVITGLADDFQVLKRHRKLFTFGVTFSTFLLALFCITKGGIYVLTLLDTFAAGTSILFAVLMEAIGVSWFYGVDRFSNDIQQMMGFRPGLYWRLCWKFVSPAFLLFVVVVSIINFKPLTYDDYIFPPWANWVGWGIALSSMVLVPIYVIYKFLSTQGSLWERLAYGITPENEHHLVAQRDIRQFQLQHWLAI
T3 sequence (Q01959 whole entry): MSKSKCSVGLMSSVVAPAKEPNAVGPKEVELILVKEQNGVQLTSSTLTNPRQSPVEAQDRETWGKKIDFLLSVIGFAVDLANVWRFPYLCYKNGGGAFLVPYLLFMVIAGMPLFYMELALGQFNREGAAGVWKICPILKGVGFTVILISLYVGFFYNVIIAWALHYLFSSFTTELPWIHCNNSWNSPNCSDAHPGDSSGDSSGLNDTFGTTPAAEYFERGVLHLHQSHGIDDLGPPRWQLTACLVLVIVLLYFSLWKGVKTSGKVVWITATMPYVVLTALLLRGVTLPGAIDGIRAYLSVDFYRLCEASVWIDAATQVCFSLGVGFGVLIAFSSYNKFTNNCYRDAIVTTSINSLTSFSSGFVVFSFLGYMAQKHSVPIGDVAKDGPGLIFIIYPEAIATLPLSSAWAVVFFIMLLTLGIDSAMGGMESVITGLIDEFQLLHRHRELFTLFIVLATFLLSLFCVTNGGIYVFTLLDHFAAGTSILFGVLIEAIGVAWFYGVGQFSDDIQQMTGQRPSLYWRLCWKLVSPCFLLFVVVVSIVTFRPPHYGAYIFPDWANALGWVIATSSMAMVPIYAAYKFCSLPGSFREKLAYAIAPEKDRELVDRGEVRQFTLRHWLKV
T7 sequence (P31645 whole entry, the tested form may be a part): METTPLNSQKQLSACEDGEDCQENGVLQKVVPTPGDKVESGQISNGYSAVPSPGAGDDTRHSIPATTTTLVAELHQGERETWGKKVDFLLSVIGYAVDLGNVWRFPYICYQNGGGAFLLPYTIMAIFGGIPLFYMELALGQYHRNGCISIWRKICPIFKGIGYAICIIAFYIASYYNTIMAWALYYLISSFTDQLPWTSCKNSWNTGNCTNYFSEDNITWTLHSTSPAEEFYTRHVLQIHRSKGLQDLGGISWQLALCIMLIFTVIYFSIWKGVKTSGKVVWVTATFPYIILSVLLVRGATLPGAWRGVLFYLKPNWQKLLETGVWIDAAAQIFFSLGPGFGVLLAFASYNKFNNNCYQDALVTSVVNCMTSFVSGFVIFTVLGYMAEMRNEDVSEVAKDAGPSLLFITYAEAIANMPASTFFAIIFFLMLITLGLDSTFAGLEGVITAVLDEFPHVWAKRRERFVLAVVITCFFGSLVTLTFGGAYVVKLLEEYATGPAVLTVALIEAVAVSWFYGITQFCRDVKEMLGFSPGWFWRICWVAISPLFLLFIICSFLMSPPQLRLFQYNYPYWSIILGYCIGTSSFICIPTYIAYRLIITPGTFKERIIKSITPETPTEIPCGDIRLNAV
T5 sequence (P28223 whole entry): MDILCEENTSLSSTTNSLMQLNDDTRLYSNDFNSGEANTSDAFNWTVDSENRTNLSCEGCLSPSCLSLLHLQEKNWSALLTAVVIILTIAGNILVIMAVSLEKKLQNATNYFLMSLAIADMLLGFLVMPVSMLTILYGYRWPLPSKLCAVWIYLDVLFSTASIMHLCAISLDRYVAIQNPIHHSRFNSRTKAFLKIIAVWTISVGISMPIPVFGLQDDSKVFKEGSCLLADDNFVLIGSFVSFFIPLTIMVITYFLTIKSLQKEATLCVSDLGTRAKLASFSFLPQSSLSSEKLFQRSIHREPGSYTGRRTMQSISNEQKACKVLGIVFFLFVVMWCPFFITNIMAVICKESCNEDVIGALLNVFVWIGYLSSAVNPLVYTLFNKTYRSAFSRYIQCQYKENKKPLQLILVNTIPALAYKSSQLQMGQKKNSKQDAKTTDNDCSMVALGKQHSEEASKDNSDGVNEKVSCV
T6 sequence (Q05940 whole entry, the tested form may be a part): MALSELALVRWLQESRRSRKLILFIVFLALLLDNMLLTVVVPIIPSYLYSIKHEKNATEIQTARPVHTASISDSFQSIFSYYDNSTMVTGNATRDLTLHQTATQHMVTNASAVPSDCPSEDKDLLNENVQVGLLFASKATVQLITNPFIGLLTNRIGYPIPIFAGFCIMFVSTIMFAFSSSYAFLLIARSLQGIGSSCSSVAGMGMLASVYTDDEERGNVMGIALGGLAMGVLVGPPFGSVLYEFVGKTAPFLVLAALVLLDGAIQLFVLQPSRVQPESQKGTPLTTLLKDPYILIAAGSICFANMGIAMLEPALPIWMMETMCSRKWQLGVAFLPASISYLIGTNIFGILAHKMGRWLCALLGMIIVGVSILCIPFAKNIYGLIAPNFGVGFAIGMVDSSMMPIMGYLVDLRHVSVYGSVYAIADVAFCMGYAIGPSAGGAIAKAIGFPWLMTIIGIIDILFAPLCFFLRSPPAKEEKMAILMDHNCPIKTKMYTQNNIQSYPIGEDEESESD
Sequence of hSigma1 receptor (Q99720 whole entry): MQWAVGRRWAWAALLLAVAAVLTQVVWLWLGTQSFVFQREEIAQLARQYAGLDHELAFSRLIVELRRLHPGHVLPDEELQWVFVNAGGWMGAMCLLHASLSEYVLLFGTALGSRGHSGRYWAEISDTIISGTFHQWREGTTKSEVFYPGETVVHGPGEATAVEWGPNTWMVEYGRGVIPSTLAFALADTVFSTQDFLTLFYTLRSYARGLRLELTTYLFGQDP

Compound: CNC(C)C(=O)c1ccc(F)cc1 (stereo not drawn) [4-FMC, 4-fluoromethcathinone]
- ratio of binding Ki to uptake IC50, hNET ([1]; [125I]RTI-55 Ki / [3H]NE uptake IC50): 276
- IC50 ([1]; read-out: Inhibition of [3H]neurotransmitter uptake IC50 ± sem, hNET [3H]NE, 20 nM [3H]NE, intact cells): 0.127 ± 0.02 µM
- time of peak [3H]NE release after addition of drug [2]: 8 to 16 min
- EC50 ([2]; read-out: Drug-induced release of [3H]neurotransmitter EC50 ± sem, hNET [3H]NE, superfusion, AUC): 1.53 ± 0.43 µM
- % maximum release ± sem, hNET [3H]NE ([2]; relative to maximal AUC induced by METH (0.3 or 1 µM)): 194 ± 58%
- h5-HT1A Stimulation of [35S]GTPγS binding % maximum stimulation ± sem ([3]; normalized to the maximal stimulation by 5-HT): 70.7 ± 8.3%
- EC50 ([3]; read-out: h5-HT1A Stimulation of [35S]GTPγS binding EC50 ± sem): 156 ± 3.4 µM
- Ki [4]: 10.4 ± 3.3 µM
- h5-HT2C Inhibition of 5-HT-stimulated IP-1 formation % maximum inhibition ± sem [5]: 15 ± 20%
- Ki [6]: 12.6 ± 2.4 µM
- serum concentration in overdose [7]: 346 ng/mL
- serum concentration in overdose (molar) [7]: ~ 1.6 uM
- h5-HT2A Inhibition of 5-HT-stimulated IP-1 formation % maximum inhibition ± sem ([8]; normalized to maximal inhibition by ketanserin (10 µM)): 97.0 ± 1.6%
- IC50 ([8]; read-out: h5-HT2A Inhibition of 5-HT-stimulated IP-1 formation IC50 ± sem): 23.6 ± 3 µM
- Ki [9]: 10 ± 1 µM
- Ki [10]: 71.6 ± 3.4 µM
- EC50 [11]: > 100 µM
- Ki [12]: 35 ± 10 µM
- Ki [13]: 24.2 ± 9 µM
- IC50 [14]: 178 ± 36 µM
- % maximum release ± sem, hDAT [3H]DA [15]: 98 ± 14%
- time of peak/maximal [3H]DA release after addition of drug ([15]; 4-FMC 10 µM to 300 µM, mephedrone 30 µM, methylone 100 µM): about 6 min
- fold less potent than METH to induce [3H]DA release ([15]; EC50 compared to METH): 45 fold
- EC50 ([15]; read-out: Drug-induced release of [3H]neurotransmitter EC50 ± sem, hDAT [3H]DA, superfusion, AUC): 17.8 ± 7.6 µM
- ratio of binding Ki to uptake IC50, hDAT ([16]; [125I]RTI-55 Ki / [3H]DA uptake IC50): 38
- IC50 ([16]; read-out: Inhibition of [3H]neurotransmitter uptake IC50 ± sem, hDAT [3H]DA, 20 nM [3H]DA, intact cells): 0.273 ± 0.074 µM
- IC50 [17]: > 10 µM
- % maximum release ± sem, hSERT [3H]5-HT [18]: 39.3 ± 9.7%
- time of peak [3H]5-HT release after addition of drug [18]: about 6 min
- EC50 ([18]; read-out: Drug-induced release of [3H]neurotransmitter EC50 ± sem, hSERT [3H]5-HT, superfusion, AUC): 39 ± 14 µM
